In brackets after ≈: the same amount, converted by molar mass.
Assays:
Gram-positive bacteria = conditions: cited from earlier work
[1] = Particle size distribution by laser diffraction; format: physicochemical; conditions: dispersive pressure 3 bar
From the text: Different crystal forms of linezolid were chosen and tested for their feasibility of suspension. Two crystal modifications (polymorphs) of Linezolid: Form II (FII) and Form III (FIII) were obtained from Symed labs Ltd (India). Approximately, 1 g each of FII and FIII was jet milled using a LaboMill jet miller (F.P.S. Food and Pharma Systems s.r.l, Italy) with an injection line pressure at 7 bar and the grind line at 4 bar. The particle size distribution of the raw and air-jet milled material was analyzed by laser diffraction (Sympatec GmbH, Helos Disperse). 5 mg of each sample was placed in a dry powder disperser (RODOS/M). A reference measurement was taken before running each sample for 5 sec at 2% optical concentration. The results were obtained at a pressure of 3 bars using lenses, R1 (0.18-0.35 μm) and R2 (0.25/0.45-87.5 μm) (Table 4). The data was collected using HELOS sensor and analyzed using Windox5 software.
The particle size distribution of the raw and air-jet milled material was analyzed by laser diffraction (Sympatec GmbH, Helos Disperse). The data on the size distribution for unmilled powder (R1) and milled powder (R4) were collected and analyzed. Air jet milling reduced the particle size from D10 4 to 6 μm (D10, 10% of the mass of the sample is comprised of particles with diameter less than this range) and D90 40 to 50 μm (D90, 90% of the mass of the sample is comprised of particles with is diameter less than this range) particle size distribution to a D10 0.4 to 0.50 μm and D90 4 to 5 μm.

[2] = Suspension of milled linezolid Form II and Form III in poloxamer vehicle; format: physicochemical; conditions: 50 mg in one mL poloxamer vehicle, manual shaking one minute
Experimental: 50 mg of each form was weighed and one mL of poloxamer vehicle was added. The particles were re-suspended by manual shaking for one minute.

[3] = Gamma irradiation: appearance and chemical stability (UPLC)
[4] = Dry heat sterilization: appearance and chemical stability (UPLC)
[5] = Nitrogen, no irradiation (—), Cold
[6] = Nitrogen, no irradiation (—), RT

Q: For `CC(=O)NC[C@H]1CN(c2ccc(N3CCOCC3)c(F)c2)C(=O)O1` [Linezolid, (S)—N-[[3-[3-fluoro-4-(4-morpholinyl)phenyl]-2-oxo-5-oxazolidinyl]methyl] acetamide], which MIC (Gram-positive bacteria) is on record?
A: 4 mg/L (≈ 11.9 µM)

Q: Which results are given for `CC(=O)NC[C@H]1CN(c2ccc(N3CCOCC3)c(F)c2)C(=O)O1` [FII, (S)—N-[[3-[3-fluoro-4-(4-morpholinyl)phenyl]-2-oxo-5-oxazolidinyl]methyl] acetamide]?
A: Particle size distribution X10 ([1]; Jet milled): 0.61 ± 0.01 μm; Particle size distribution X50 ([1]; Jet milled): 1.79 ± 0.03 μm; Particle size distribution X90 ([1]; Jet milled): 3.95 ± 0.04 μm; VMD (Volume mean diameter in μm) ([1]; Jet milled): 2.07 μm; Particle size distribution X10 ([1]; Raw (pre-milled)): 0.94 μm; Particle size distribution X50 ([1]; Raw (pre-milled)): 3.79 μm; Particle size distribution X90 ([1]; Raw (pre-milled)): 44.75 μm; VMD (Volume mean diameter in μm) ([1]; Raw (pre-milled)): 14.70 μm; Suspension behaviour of air jet milled particles [2]: dispersed uniformly; Stability % 25° C. day 28 ([3]; Air, 15 KGy, Cold): 99.4%; Stability % 40° C. day 28 ([3]; Air, 15 KGy, Cold): 98.0%; Stability % t = 0 ([3]; Air, 15 KGy, Cold): 99%; Stability % 25° C. day 28 ([3]; Air, 15 KGy, RT): 99.4%; Stability % 40° C. day 28 ([3]; Air, 15 KGy, RT): 99.1%; Stability % t = 0 ([3]; Air, 15 KGy, RT): 99.5%; Stability % 25° C. day 28 ([3]; Air, 25 KGy, Cold): 99.6%; Stability % 40° C. day 28 ([3]; Air, 25 KGy, Cold): 99.7%; Stability % t = 0 ([3]; Air, 25 KGy, Cold): 100%; Stability % 25° C. day 28 ([3]; Air, 25 KGy, RT): 100%; Stability % 40° C. day 28 ([3]; Air, 25 KGy, RT): 98.9%; Stability % t = 0 ([3]; Air, 25 KGy, RT): 100%; Stability % 25° C. day 28 ([3]; Air, no irradiation (—), Cold): 98.1%; Stability % 40° C. day 28 ([3]; Air, no irradiation (—), Cold): 99.6%; Stability % t = 0 ([3]; Air, no irradiation (—), Cold): 100%; Stability % 25° C. day 28 ([3]; Air, no irradiation (—), RT): 99.5%; Stability % 40° C. day 28 ([3]; Air, no irradiation (—), RT): 100.1%; Stability % t = 0 ([3]; Air, no irradiation (—), RT): 100%; Stability % 25° C. day 28 ([3]; Nitrogen, 15 KGy, Cold): 97.5%; Stability % 40° C. day 28 ([3]; Nitrogen, 15 KGy, Cold): 99.3%; Stability % t = 0 ([3]; Nitrogen, 15 KGy, Cold): 100%; Stability % 25° C. day 28 ([3]; Nitrogen, 15 KGy, RT): 98.8%; Stability % 40° C. day 28 ([3]; Nitrogen, 15 KGy, RT): 99.5%; Stability % t = 0 ([3]; Nitrogen, 15 KGy, RT): 100%; Stability % 25° C. day 28 ([3]; Nitrogen, 25 KGy, Cold): 100%; Stability % 40° C. day 28 ([3]; Nitrogen, 25 KGy, Cold): 99.3%; Stability % t = 0 ([3]; Nitrogen, 25 KGy, Cold): 100%; Stability % 25° C. day 28 ([3]; Nitrogen, 25 KGy, RT): 99.6%; Stability % 40° C. day 28 ([3]; Nitrogen, 25 KGy, RT): 99.4%; Stability % t = 0 ([3]; Nitrogen, 25 KGy, RT): 100.5%; Stability % 25° C. day 28 [3, 5]: 99.6%; Stability % 40° C. day 28 [3, 5]: 99%; Stability % t = 0 [3, 5]: 100%; Stability % 25° C. day 28 [3, 6]: 98.7%; Stability % 40° C. day 28 [3, 6]: 97.7%; Stability % t = 0 [3, 6]: 99.5%; Appearance ([4]; dry heat 120° C., 20 hr): Powder; Chemical Stability % expected parent (2-8° C. (control) t = 0) ([4]; dry heat 120° C., 20 hr): 100%; Appearance ([4]; dry heat 120° C., 50 hr): Powder; Chemical Stability % expected parent (2-8° C. (control) t = 0) ([4]; dry heat 120° C., 50 hr): 99%; Appearance ([4]; dry heat 130° C., 8 hr): Yellow; Chemical Stability % expected parent (2-8° C. (control) t = 0) ([4]; dry heat 130° C., 8 hr): 39%; Appearance ([4]; dry heat 130° C., 20 hr): Yellow; Chemical Stability % expected parent (2-8° C. (control) t = 0) ([4]; dry heat 130° C., 20 hr): 26%; Appearance ([4]; dry heat 130° C., 50 hr): Yellow; Chemical Stability % expected parent (2-8° C. (control) t = 0) ([4]; dry heat 130° C., 50 hr): 19%; Appearance ([4]; dry heat 140° C., 4 hr): Yellow; Chemical Stability % expected parent (2-8° C. (control) t = 0) ([4]; dry heat 140° C., 4 hr): 52%; Appearance ([4]; dry heat 140° C., 8 hr): Powder; Chemical Stability % expected parent (2-8° C. (control) t = 0) ([4]; dry heat 140° C., 8 hr): 97%; Appearance ([4]; dry heat 140° C., 20 hr): Yellow; Chemical Stability % expected parent (2-8° C. (control) t = 0) ([4]; dry heat 140° C., 20 hr): 17%; Appearance ([4]; dry heat 160° C., 2 hr): Yellow; Chemical Stability % expected parent (2-8° C. (control) t = 0) ([4]; dry heat 160° C., 2 hr): 16%

Q: Which results are given for `CC(=O)NC[C@H]1CN(c2ccc(N3CCOCC3)c(F)c2)C(=O)O1` [FIII]?
A: Particle size distribution X10 ([1]; Jet milled): 0.63 ± 0.01 μm; Particle size distribution X50 ([1]; Jet milled): 2.06 ± 0.02 μm; Particle size distribution X90 ([1]; Jet milled): 4.50 ± 0.12 μm; VMD (Volume mean diameter in μm) ([1]; Jet milled): 2.38 μm; Particle size distribution X10 ([1]; Raw (pre-milled)): 1.03 μm; Particle size distribution X50 ([1]; Raw (pre-milled)): 4.33 μm; Particle size distribution X90 ([1]; Raw (pre-milled)): 11.46 μm; VMD (Volume mean diameter in μm) ([1]; Raw (pre-milled)): 5.52 μm; Suspension behaviour of air jet milled particles ([2]; listed as Form III): formed lumps and were not evenly distributed
